This is an account of results in publication PMC8010149, “A Therapeutic Strategy to Combat HIV-1 Latently Infected Cells With a Combination of Latency-Reversing Agents Containing DAG-Lactone PKC Activators” (Frontiers in Microbiology, 2021).

The data set is described as follows: Cytotoxicity of LRAs in A3.01 cells. The note with it: human, day 7. The format is cell-based. On the procedure: To determine the cytotoxicity of LRAs, A3.01, and U937 cells (5 × 10^5 cells/ml), which are the parental cells for ACH-2 and U1 cells, respectively, were cultured in the presence or absence of LRAs. After 7 days, cell viability was examined using the Cell Counting Kit-8 assay (Dojindo, Kumamoto, Japan) according to the manufacturer’s instructions. The numbers of living cells after drug treatment were measured and compared to those in untreated cells and are presented as a percentage relative to the control.

Consider `CCCC(CCC)C(=O)OCC1(CO)CC(=C(C)C)C(=O)O1` (stereo not shown) [YSE028], for which the CC50 (as a rule, the concentration that lowers cell viability or growth by half) at 7 days is over 100 µM.
